According to patent publication US20230365568A1, “PLK1 POLO BOX DOMAIN INHIBITORS AND METHOD OF TREATING CANCER” (The United States of America,as represented by the …, priority 2020, published 2023):
Where two headings read alike, the source gives them in different places.

Assays:
[1] = Microsomal metabolic stability, rat liver microsomes (RLM); conditions: rat liver microsomes
Aqueous solubility = conditions: for Solub.: aqueous solubility

PAMPA [×10⁻⁶ cm/s] | PAMPA permeability (pH 7.4) | solubility (Aqueous solubility) | SMILES | t1/2 (min, RLM) [1] | PAMPA (PAMPA permeability) [×10⁻⁶ cm/s] | Solub. (Aqueous solubility) [µg/mL]
177 | – | – | CN(C)CCn1c(=O)c2cc(F)ccc2n2c(=S)[nH]nc12 [compound 70] | >30 min | – | >45
924 | – | – | O=c1c2cc(F)ccc2n2cnnc2n1CCc1ccccc1 [compound 18] | 11.8 min | – | 14.8
82 | – | – | O=c1c2ccccc2n2c(=S)[nH]nc2n1CCC(F)(F)F [compound 27] | >30, min | – | 23.3
117 | moderate to good permeability | moderate to good solubility | O=c1c2cc(F)ccc2n2c(=S)[nH]nc2n1CCC(F)(F)F [compound 65] | >30 min | – | 17.3
<1 | – | – | CN1CCN(CC(=O)NCCCn2c(=O)c3cc(F)ccc3n3c(=S)[nH]nc23)CC1 [compound 117] | >30 min | – | >64
<1 | – | – | O=C(CN1CCOCC1)NCCCn1c(=O)c2cc(F)ccc2n2c(=S)[nH]nc12 [compound 118] | >30 min | – | >62
358 | – | – | O=c1c2cc(F)ccc2n2c(=S)[nH]nc2n1CCN1CCCCC1 [compound 88] | >30 min | – | 2.4
186 | – | – | CC(CN(C)C)n1c(=O)c2cc(F)ccc2n2c(=S)[nH]nc12 (centres unmarked) [compound 71] | >30 min | – | >47
222 | – | – | O=c1c2cc(F)ccc2n2c(=S)[nH]nc2n1CCCO [compound 66] | >30 min | – | >43
330 | – | – | CC(C)(C)OC(=O)NC1CCC(C(=O)NCCCn2c(=O)c3cc(F)ccc3n3c(=S)[nH]nc23)CC1 (centres unmarked) [compound 110] | 24.8 min | – | >77
841 | – | – | O=c1c2cc(F)ccc2n2c(=S)[nH]nc2n1Cc1ccccc1 [compound 52] | >30 min | – | 8.3
427 | – | – | CCn1c(=O)c2ccccc2n2c(=S)[nH]nc12 [compound 20] | >30 min | – | >36
<1 | – | – | O=C(O)CCC(=O)NCCCn1c(=O)c2cc(F)ccc2n2c(=S)[nH]nc12 [compound 106] | >30 min | – | >58

The remaining lines, values behind:

SMILES | PAMPA [×10⁻⁶ cm/s] | PAMPA permeability (pH 7.4) | solubility (Aqueous solubility) | t1/2 (min, RLM) [1] | PAMPA (PAMPA permeability) [×10⁻⁶ cm/s] | Solub. (Aqueous solubility) [µg/mL]
O=C(Cc1cccnc1)NCCCn1c(=O)c2cc(F)ccc2n2c(=S)[nH]nc12 [compound 137, N-(3-(7-Fluoro-5-oxo-1-thioxo-1,2-dihydro-[1,2,4]triazolo[4,3-a]quinazolin-4(5H)-yl)propyl)-2-(pyridine-3-yl)acetamide] | – | – | – | >30 min | 21.0 | 31.8
O=C(Cc1cccc(F)c1)NCCCn1c(=O)c2cc(F)ccc2n2c(=S)[nH]nc12 [compound 122, N-(3-(7-fluoro-5-oxo-1-thioxo-1,2-dihydro-[1,2,4]triazolo[4,3-a]quinazolin-4(5H)-yl)propyl)-2-(3-fluorophenyl)acetamide] | – | – | – | 26.5 min | 364 | >63
O=C(Cc1ccc(Br)cc1)NCCCn1c(=O)c2cc(F)ccc2n2c(=S)[nH]nc12 [compound 125, 2-(4-bromophenyl)-N-(3-(7-fluoro-5-oxo-1-thioxo-1,2-dihydro-[1,2,4]triazolo[4,3-a]quinazolin-4(5H)-yl)propyl)acetamide] | – | – | – | 20.6 min | 767 | <1
CC(C)(C)OC(=O)Nc1ccc(CC(=O)NCCCn2c(=O)c3cc(F)ccc3n3c(=S)[nH]nc23)cc1 [compound 135, tert-butyl (4-(2-((3-(7-fluoro-5-oxo-1-thioxo-1,2-dihydro-[1,2,4]triazolo[4,3-a]quinazolin-4(5H)-yl)propyl)amino)-2-oxoethyl)phenyl)carbamate] | – | – | – | >30 min | 910 | 17.4
COc1ccccc1CC(=O)NCCCn1c(=O)c2cc(F)ccc2n2c(=S)[nH]nc12 [compound 128, N-(3-(7-fluoro-5-oxo-1-thioxo-1,2-dihydro-[1,2,4]triazolo[4,3-a]quinazolin-4(5H)-yl)propyl)-2-(2-methoxyphenyl)acetamide] | – | – | – | 16.1 min | 379 | >65
O=C(Cc1cccc(Cl)c1)NCCCn1c(=O)c2cc(F)ccc2n2c(=S)[nH]nc12 [compound 124, 2-(3-chlorophenyl)-N-(3-(7-fluoro-5-oxo-1-thioxo-1,2-dihydro-[1,2,4]triazolo[4,3-a]quinazolin-4(5H)-yl)propyl)acetamide] | – | – | – | 8.4 min | 861 | >66
O=C(Cc1ccccn1)NCCCn1c(=O)c2cc(F)ccc2n2c(=S)[nH]nc12 [compound 136, N-(3-(7-Fluoro-5-oxo-1-thioxo-1,2-dihydro-[1,2,4]triazolo[4,3-a]quinazolin-4(5H)-yl)propyl)-2-(pyridine-2-yl)acetamide] | – | – | – | >30 min | 68.0 | 41.4
O=C(Cc1ccccc1C(F)(F)F)NCCCn1c(=O)c2cc(F)ccc2n2c(=S)[nH]nc12 [compound 131, N-(3-(7-fluoro-5-oxo-1-thioxo-1,2-dihydro-[1,2,4]triazolo[4,3-a]quinazolin-4(5H)-yl)propyl)-2-(2-(trifluoromethyl)phenyl)acetamide] | – | – | – | 3.7 min | 825 | 40.3
O=c1c2cc(F)ccc2n2c(=S)[nH]nc2n1CCc1ccc(Cl)cc1 [compound 82] | <1 | – | – | >30 min | – | 1.2
O=C(Cc1ccncc1)NCCCn1c(=O)c2cc(F)ccc2n2c(=S)[nH]nc12 [compound 138, N-(3-(7-fluoro-5-oxo-1-thioxo-1,2-dihydro-[1,2,4]triazolo[4,3-a]quinazolin-4(5H)-yl)propyl)-2-(pyridine-4-yl)acetamide] | – | – | – | >30 min | <1 | 9.6
Cc1ccc(CC(=O)NCCCn2c(=O)c3cc(F)ccc3n3c(=S)[nH]nc23)cc1 [compound 126, N-(3-(7-fluoro-5-oxo-1-thioxo-1,2-dihydro-[1,2,4]triazolo[4,3-a]quinazolin-4(5H)-yl)propyl)-2-(p-tolyl)acetamide] | – | – | – | 23.9 min | 621 | 12.9
N#Cc1ccccc1CC(=O)NCCCn1c(=O)c2cc(F)ccc2n2c(=S)[nH]nc12 [compound 133, 2-(2-cyanophenyl)-N-(3-(7-fluoro-5-oxo-1-thioxo-1,2-dihydro-[1,2,4]triazolo[4,3-a]quinazolin-4(5H)-yl)propyl)acetamide] | – | – | – | >30 min | 156 | 20.9
O=C(Cc1ccccc1)NCCCn1c(=O)c2cc(F)ccc2n2c(=S)[nH]nc12 [compound 120, N-(3-(7-fluoro-5-oxo-1-thioxo-1,2-dihydro-[1,2,4]triazolo[4,3-a]quinazolin-4(5H)-yl)propyl)-2-phenylacetamide] | – | – | – | 18.7 min | 248 | 31.7
